Measured values taken from US9113629B2, “4-amino-6-(4-substituted-phenyl)-picolinates and 6-amino-2-(4-substituted-phenyl)-pyrimidine-4-carboxylates and their use as herbicides” (DOW AGROSCIENCES LLC, priority 2013, dated 2015).
Read-outs that look alike come from different tables or passages of the source.

How the values were obtained:
[1] = system: Key Broadleaf Weed and Crop Species; assay: Post-emergent Test II herbicidal activity (Table 5); type: in vivo; conditions: post-emergence, 336 h, 14 days after application; for pest or weed control at 70 g/ha: application rate 70 g ai/ha; for pest or weed control at 140 g/ha: application rate 140 g ai/ha
Method in brief: (§1)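 Greenhouse post-emergent assay: seedlings (first/second true leaf) in Metro-Mix 360 were sprayed at 187 L/ha at a top rate plus twofold dilutions down to 1/16×; solvent-blank controls were included. Percent visual injury was read at 14 d.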

[2] = system: Key Grass and Sedge Weeds as well as Grass Crops; assay: Post-emergent Test II herbicidal activity (Table 6); type: in vivo; conditions: post-emergence, 336 h; for pest or weed control at 70 g/ha: 70 g ai/ha; for pest or weed control at 140 g/ha: 140 g ai/ha
Method in brief: as §1

[3] = ABUTH: velvetleaf (Abutilon theophrasti), read-out: Visual Growth Reduction (%) 14 Days After Application, ABUTH
[4] = AMARE: redroot pigweed (Amaranthus retroflexus), read-out: Visual Growth Reduction (%) 14 Days After Application, AMARE
[5] = BRSNN: oilseed-rape, canola (Brassica napus), read-out: Visual Growth Reduction (%) 14 Days After Application, BRSNN
[6] = CHEAL: lambsquarters (Chenopodium album), read-out: Visual Growth Reduction (%) 14 Days After Application, CHEAL
[7] = EPHHL: wild poinsettia (Euphorbia heterophylla), read-out: Visual Growth Reduction (%) 14 Days After Application, EPHHL
[8] = HELAN: sunflower (Helianthus annuus), read-out: Visual Growth Reduction (%) 14 Days After Application, HELAN
[9] = VIOTR: wild pansy (Viola tricolor), read-out: Visual Growth Reduction (%) 14 Days After Application, VIOTR
[10] = CYPES: yellow nutsedge (Cyperus esculentus), read-out: Visual Growth Reduction (%) 14 Days After Application, CYPES
[11] = DIGSA: crabgrass (Digitaria sanguinalis), read-out: Visual Growth Reduction (%) 14 Days After Application, DIGSA
[12] = ECHCG: barnyardgrass (Echinochloa crus-galli), read-out: Visual Growth Reduction (%) 14 Days After Application, ECHCG
[13] = ORYSA: rice (Oryza sativa), crop, read-out: Visual Growth Reduction (%) 14 Days After Application, ORYSA
[14] = SETFA: giant foxtail (Setaria faberi), read-out: Visual Growth Reduction (%) 14 Days After Application, SETFA
[15] = SORVU: grain sorghum (Sorghum vulgare), read-out: Visual Growth Reduction (%) 14 Days After Application, SORVU
[16] = TRZSS (wheat, Triticum aestivum), crop, read-out: Visual Growth Reduction (%) 14 Days After Application, TRZSS
[17] = ZEAMX: maize, corn (Zea mays), crop, read-out: Visual Growth Reduction (%) 14 Days After Application, ZEAMX

For `COC(=O)c1nc(-c2cccc(F)c2F)c(F)c(N)c1Cl` [Compound 199], the pest or weed control at 70 g/ha [1, 3] was 95 to 100%, the pest or weed control at 140 g/ha [1, 3] was 95 to 100% and the pest or weed control at 70 g/ha [1, 4] was 95 to 100%. For the same compound, the pest or weed control at 140 g/ha [1, 4] was 95 to 100%, the pest or weed control at 70 g/ha [1, 5] was 85 to 94% and the pest or weed control at 140 g/ha [1, 5] was 95 to 100%. The pest or weed control at 70 g/ha [1, 6] was 85 to 94%, the pest or weed control at 140 g/ha [1, 6] was 95 to 100% and the pest or weed control at 70 g/ha [1, 7] was 60 to 74%. The pest or weed control at 140 g/ha [1, 7] was 85 to 94%, the pest or weed control at 70 g/ha [1, 8] was 75 to 84% and the pest or weed control at 140 g/ha [1, 8] was 95 to 100%. The pest or weed control at 70 g/ha [1, 9] was 0 to 29%, the pest or weed control at 140 g/ha [1, 9] was 30 to 44% and the pest or weed control at 70 g/ha [2, 10] was 0 to 29%. For the same compound, the pest or weed control at 140 g/ha [2, 10] was 0 to 29%, the pest or weed control at 70 g/ha [2, 11] was 0 to 29% and the pest or weed control at 140 g/ha [2, 11] was 0 to 29%. It also gave a pest or weed control at 70 g/ha [2, 12] of 0 to 29%, a pest or weed control at 140 g/ha [2, 12] of 0 to 29% and a pest or weed control at 70 g/ha [2, 13] of 0 to 29%. It also gave a pest or weed control at 140 g/ha [2, 13] of 0 to 29%, a pest or weed control at 70 g/ha [2, 14] of 0 to 29% and a pest or weed control at 140 g/ha [2, 14] of 0 to 29%. It also gave a pest or weed control at 70 g/ha [2, 15] of 0 to 29%, a pest or weed control at 140 g/ha [2, 15] of 0 to 29% and a pest or weed control at 70 g/ha [2, 16] of 0 to 29%. The pest or weed control at 140 g/ha [2, 16] was 0 to 29%, the pest or weed control at 70 g/ha [2, 17] was 0 to 29% and the pest or weed control at 140 g/ha [2, 17] was 0 to 29%.
